Source: PubChem BioAssay AID248 (DTP/NCI, 2004)
Where “and” joins values, the source holds several entries; their conditions need not be identical. Equal values may be shown once. Toxic doses and inconclusive results are not listed. Cut-off read from the data, not from the text of the source: active = T/C of 150% or more; inactive = T/C below 125%.

Tested on: L1210 leukemia ip in BDF1 mice, survival T/C
Assay: NCI In Vivo Anticancer Drug Screen. Data for tumor model L1210 Leukemia (intraperitoneal) in B6D2F1 (BDF1) mice
Settings: endpoint: mean survival time, higher = longer survival
How it was run: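 Tumor cells were implanted, animals were treated, and survival was followed. The result divides the treated measurement by the vehicle-control measurement.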

[1] = dose: 100.0 mg/kg/injection, schedule: Q01DX009 (ip), vehicle: saline with Tween-80
[2] = dose: 200.0 mg/kg/injection, schedule: Q01DX009 (ip), vehicle: saline with Tween-80
[3] = dose: 400.0 mg/kg/injection, schedule: Q01DX009 (ip), vehicle: saline with Tween-80
[4] = dose: 500.0 mg/kg/injection, schedule: Q01DX Z (ip), vehicle: saline
[5] = dose: 100.0 mg/kg/injection, schedule: Q04DX003 (ip), vehicle: Klucel (hydroxypropylcellulose) (HPC)
[6] = dose: 200.0 mg/kg/injection, schedule: Q04DX003 (ip), vehicle: Klucel (hydroxypropylcellulose) (HPC)
[7] = dose: 50.0 mg/kg/injection, schedule: Q01DX009 (ip), vehicle: saline with Tween-80
[8] = dose: 100.0 mg/kg/injection, schedule: Q04DX003 (ip), vehicle: saline with Tween-80
[9] = dose: 200.0 mg/kg/injection, schedule: Q04DX003 (ip), vehicle: saline with Tween-80
[10] = dose: 400.0 mg/kg/injection, schedule: Q04DX003 (ip), vehicle: saline with Tween-80
[11] = dose: 200.0 mg/kg/injection, schedule: Q04DX002 (ip), vehicle: Klucel (hydroxypropylcellulose) (HPC)
[12] = dose: 400.0 mg/kg/injection, schedule: Q04DX002 (ip), vehicle: Klucel (hydroxypropylcellulose) (HPC)
[13] = dose: 200.0 mg/kg/injection, schedule: Q01DX001 (ip), vehicle: Klucel (hydroxypropylcellulose) (HPC)
[14] = dose: 400.0 mg/kg/injection, schedule: Q01DX001 (ip), vehicle: Klucel (hydroxypropylcellulose) (HPC)
[15] = dose: 100.0 mg/kg/injection, schedule: Q04DX002 (ip), vehicle: Klucel (hydroxypropylcellulose) (HPC)
[16] = dose: 100.0 mg/kg/injection, schedule: Q01DX001 (ip), vehicle: Klucel (hydroxypropylcellulose) (HPC)
[17] = dose: 75.0 mg/kg/injection, schedule: Q01DX001 (ip), vehicle: saline
[18] = dose: 150.0 mg/kg/injection, schedule: Q01DX001 (ip), vehicle: saline

Measured: T/C

COc1ccc(OC)c(NC(=O)c2ccc(Cl)cc2Cl)c1
inactive: dose: 100.0 mg/kg/injection, schedule: Q01DX009 (ip), vehicle: Klucel (hydroxypropylcellulose) (HPC) 95 % of control | dose: 200.0 mg/kg/injection, schedule: Q01DX009 (ip), vehicle: Klucel (hydroxypropylcellulose) (HPC) 93 % of control | dose: 400.0 mg/kg/injection, schedule: Q01DX009 (ip), vehicle: Klucel (hydroxypropylcellulose) (HPC) 95 % of control

CN(C)O
inactive: [1] 103 % of control | [2] 105 % of control | dose: 222.0 mg/kg/injection, schedule: Q01DX Z (ip), vehicle: saline 100 % of control | dose: 333.0 mg/kg/injection, schedule: Q01DX Z (ip), vehicle: saline 97 % of control | [3] 108 % of control | [4] 106 % of control

CC(C)(C)c1ccc(CN2CCN(C(c3ccccc3)c3ccc(Cl)cc3)CC2)cc1 (configuration not stated)
inactive: dose: 12.5 mg/kg/injection, schedule: Q01DX009 (ip), vehicle: Klucel (hydroxypropylcellulose) (HPC) 98 % of control | dose: 25.0 mg/kg/injection, schedule: Q01DX009 (ip), vehicle: Klucel (hydroxypropylcellulose) (HPC) 91 % of control | dose: 25.0 mg/kg/injection, schedule: Q04DX003 (ip), vehicle: Klucel (hydroxypropylcellulose) (HPC) 93 % of control | dose: 50.0 mg/kg/injection, schedule: Q01DX009 (ip), vehicle: Klucel (hydroxypropylcellulose) (HPC) 91 % of control | dose: 50.0 mg/kg/injection, schedule: Q04DX003 (ip), vehicle: Klucel (hydroxypropylcellulose) (HPC) 93 % of control | [5] 96 % of control | [6] 91 % of control

COC(OC)c1cc(=O)[nH]c(NC(=O)C(Cl)Cl)n1
inactive: dose: 25.0 mg/kg/injection, schedule: Q01DX009 (ip), vehicle: saline with Tween-80 90 % of control | [7] 107 % of control | [1] 106 % of control | [8] 98 % of control | [2] 89 % of control | [9] 104 % of control | [3] 93 % of control | [10] 94 % of control

c1ccc([Si]2(c3ccccc3)[Si](c3ccccc3)(c3ccccc3)[Si](c3ccccc3)(c3ccccc3)[Si](c3ccccc3)(c3ccccc3)[Si](c3ccccc3)(c3ccccc3)[Si]2(c2ccccc2)c2ccccc2)cc1
inactive: [8] 102 % of control | dose: 160.0 mg/kg/injection, schedule: Q04DX002 (ip), vehicle: saline with Tween-80 86 % of control | [9] 94 % of control | dose: 400.0 mg/kg/injection, schedule: Q04DX002 (ip), vehicle: saline with Tween-80 86 % of control | [10] 96 % of control

O=C(Cc1ccccc1)Nc1ccc(Nc2ccccc2)cc1
inactive: [11] 100 % of control | [12] 95 % of control

COc1ccc(Cl)cc1[N+](=O)[O-]
inactive: [13] 95 % of control | [14] 95 % of control

CCCCOB(OCCCC)c1ccc(SC)cc1
inactive: dose: 100.0 mg/kg/injection, schedule: Q04DX003 (ip), vehicle: alcohol 111 % of control | dose: 200.0 mg/kg/injection, schedule: Q04DX003 (ip), vehicle: alcohol 103 % of control | dose: 400.0 mg/kg/injection, schedule: Q04DX003 (ip), vehicle: alcohol 118 % of control

CCCCC(=O)N1CCCC(C)C1 (configuration not stated)
inactive: [15] 105 % of control

Cc1c2cnccc2c(C)c2c1c1ccccc1n2CCCCl
inactive: [16] 102 % of control | [5] 96 % of control | [13] 96 % of control | [6] 94 % of control | [14] 94 % of control | dose: 400.0 mg/kg/injection, schedule: Q04DX003 (ip), vehicle: Klucel (hydroxypropylcellulose) (HPC) 96 % of control

O=C(CC(=O)c1ccccc1)CC(=O)c1ccccc1
inactive: [16] 97 % of control | [13] 100 % of control | [14] 94 % of control

COc1cc(Nc2nc(N)ncc2[N+](=O)[O-])cc(OC)c1OC
inactive: [8] 92 % of control | [9] 87 % of control | [10] 88 % of control

COc1cc(CNC2CCCCC2)ccc1O
inactive: [17] 97 % of control | [18] 110 % of control

CC1=C/C(=N\NC(N)=O)CCC1
inactive: [15] 97 % of control | [11] 86 % of control | [12] 105 % of control

CC(C)(C)SCCN1C(=O)C2C3CCC(O3)C2C1=O (configuration not stated)
inactive: [15] 104 % of control | [11] 100 % of control | [12] 107 % of control

COC(=O)c1ccc(Cn2ccc(=O)[nH]c2=O)cc1
inactive: dose: 50.0 mg/kg/injection, schedule: Q04DX003 (ip), vehicle: saline with Tween-80 92 % of control | [8] 95 % of control | [9] 89 % of control

COc1ccc(/C(C#N)=C2C=C(Cl)/C(=N/O)C=C/2Cl)cc1
inactive: dose: 100.0 mg/kg/injection, schedule: Q01DX001 (ip), vehicle: saline 91 % of control | [1] 93 % of control | dose: 100.0 mg/kg/injection, schedule: Q04DX003 (ip), vehicle: saline 91 % of control | dose: 200.0 mg/kg/injection, schedule: Q01DX001 (ip), vehicle: saline 95 % of control | [2] 98 % of control | dose: 200.0 mg/kg/injection, schedule: Q04DX003 (ip), vehicle: saline 87 % of control | dose: 400.0 mg/kg/injection, schedule: Q01DX001 (ip), vehicle: saline 96 % of control | dose: 400.0 mg/kg/injection, schedule: Q04DX003 (ip), vehicle: saline 86 % of control

Cc1nn(-c2ccccc2)c(N)c1C#N
inactive: dose: 25.0 mg/kg/injection, schedule: Q01DX009 (ip), vehicle: saline 100 % of control | dose: 50.0 mg/kg/injection, schedule: Q01DX009 (ip), vehicle: saline 97 % of control | dose: 75.0 mg/kg/injection, schedule: Q01DX009 (ip), vehicle: saline 98 % of control | dose: 100.0 mg/kg/injection, schedule: Q01DX009 (ip), vehicle: saline 103 % of control and 121 % of control | dose: 150.0 mg/kg/injection, schedule: Q01DX009 (ip), vehicle: saline 103 % of control | dose: 200.0 mg/kg/injection, schedule: Q01DX009 (ip), vehicle: saline 106 % of control

CCCCCCC#CC(=O)OCCCCCC
inactive: dose: 100.0 mg/kg/injection, schedule: Q04DX002 (ip), vehicle: saline 108 % of control | dose: 200.0 mg/kg/injection, schedule: Q04DX002 (ip), vehicle: saline 94 % of control | dose: 400.0 mg/kg/injection, schedule: Q04DX002 (ip), vehicle: saline 97 % of control

C1=C2CC3(CCC2C(OCc2ccccc2)CC1)OCCO3 (configuration not stated)
inactive: [7] 100 % of control | [1] 92 % of control | [2] 94 % of control

O=C1CC2(CCCCC2)C(=O)N1
inactive: dose: 5.0 mg/kg/injection, schedule: Q04DX003 (ip), vehicle: saline with Tween-80 102 % of control | dose: 10.0 mg/kg/injection, schedule: Q04DX003 (ip), vehicle: saline with Tween-80 102 % of control | dose: 20.0 mg/kg/injection, schedule: Q04DX003 (ip), vehicle: saline with Tween-80 102 % of control

O=S(=O)(c1ccccc1)C(Cl)c1cccc(Cl)c1 (configuration not stated)
inactive: [15] 105 % of control | [11] 101 % of control | [12] 122 % of control

O=C(Nc1ccc([N+](=O)[O-])cc1)C(Cl)(Cl)Cl
inactive: dose: 50.0 mg/kg/injection, schedule: Q01DX001 (ip), vehicle: Klucel (hydroxypropylcellulose) (HPC) 94 % of control | [16] 95 % of control | [13] 97 % of control

Cc1cc[n+](Cc2cc3ccccc3[nH]c2=O)cc1
inactive: dose: 12.5 mg/kg/injection, schedule: Q01DX001 (ip), vehicle: saline 96 % of control | dose: 25.0 mg/kg/injection, schedule: Q01DX001 (ip), vehicle: saline 100 % of control | dose: 50.0 mg/kg/injection, schedule: Q01DX001 (ip), vehicle: saline 95 % of control

CCOP(=O)(CCCCN1C(=O)c2ccccc2C1=O)OCC
inactive: dose: 31.3 mg/kg/injection, schedule: Q01DX Z (ip), vehicle: saline 101 % of control | dose: 62.5 mg/kg/injection, schedule: Q01DX Z (ip), vehicle: saline 100 % of control | dose: 125.0 mg/kg/injection, schedule: Q01DX Z (ip), vehicle: saline 103 % of control | dose: 250.0 mg/kg/injection, schedule: Q01DX Z (ip), vehicle: saline 103 % of control | [4] 92 % of control

Cc1ccc(Nc2nc(N)nc(CNc3ccc(Cl)cc3)n2)cc1
inactive: [8] 89 % of control | [9] 97 % of control | [10] 89 % of control

CC/C(=C\c1ccc2ccccc2c1)[N+](=O)[O-]
inactive: [17] 97 % of control | [18] 103 % of control
